21 compounds from patent publication US20240287076A1, “COMPOUNDS FOR TARGETING DEGRADATION OF BRUTON'S TYROSINE KINASE” (BIOGEN MA INC., priority 2021, published 2024) can be followed below.

Some results are limits rather than exact numbers.

T1 sequence (Q06187 whole entry, the tested form may be a part): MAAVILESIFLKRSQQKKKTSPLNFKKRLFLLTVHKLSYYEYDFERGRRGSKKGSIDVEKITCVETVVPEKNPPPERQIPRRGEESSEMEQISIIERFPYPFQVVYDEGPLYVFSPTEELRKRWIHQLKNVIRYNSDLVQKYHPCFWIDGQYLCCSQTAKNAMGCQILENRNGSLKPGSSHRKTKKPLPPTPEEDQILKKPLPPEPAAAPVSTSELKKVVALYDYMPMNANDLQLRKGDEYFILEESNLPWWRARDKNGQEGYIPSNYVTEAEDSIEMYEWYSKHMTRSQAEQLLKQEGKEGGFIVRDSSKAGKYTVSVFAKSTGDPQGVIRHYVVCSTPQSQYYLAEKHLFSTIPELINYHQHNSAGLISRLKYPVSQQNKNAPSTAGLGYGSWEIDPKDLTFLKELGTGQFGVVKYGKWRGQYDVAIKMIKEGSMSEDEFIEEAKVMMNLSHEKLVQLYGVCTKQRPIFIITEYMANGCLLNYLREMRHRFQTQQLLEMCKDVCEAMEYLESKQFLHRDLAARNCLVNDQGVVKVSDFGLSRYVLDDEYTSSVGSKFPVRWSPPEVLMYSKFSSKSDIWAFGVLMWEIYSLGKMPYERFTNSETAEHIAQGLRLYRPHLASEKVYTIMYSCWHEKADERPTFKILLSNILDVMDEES

The experiment concerns the target T1, BTK (Homo sapiens, UniProt Q06187).
T1 construct: The GM01501.3 cell line endogenously expresses BTK with a HiBiT fusion tag via CRISPR knock-in at its C-terminal region; endogenous in cells; host or cells: GM01501.3 (GM01501 cells engineered by CRISPR knock-in of HiBiT at the BTK locus)
Briefly: BTK degradation assay using the HiBiT Method (Nano-Glo HiBiT Lytic Assay, GM01501.3 cells). Format: cell-based. The conditions noted are these: HiBiT Degradation on GM01501.3 BTK @ 6 hours. In short, it runs like this:
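CRISPR knock-in GM01501.3 cells expressing endogenous BTK with C-terminal HiBiT tag, treated 6 h at 37 °C with compounds, 11-point half-log titration from 10 μM top, duplicates. Remaining BTK quantified by Nano-Glo HiBiT lytic luminescence versus DMSO controls; DC50 reported.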
In turn, `COc1ccc(C(=O)NCc2ccc(-c3ncnn4cc(-c5ccc(CN6CCC(c7ccc(NC8CCC(=O)NC8=O)cc7)CC6)cc5)cc34)cc2C)nc1` (stereo not drawn) [Example 93, N-[[4-[6-[4-[[4-[4-[(2,6-dioxo-3-piperidyl)amino]phenyl]-1-piperidyl]methyl]phenyl]pyrrolo[2,1-f][1,2,4]triazin-4-yl]-2-methyl-phenyl]methyl]-5-methoxy-pyridine-2-carboxamide] showed a DC50 of less than 100 nM.

Take `Cc1cc(-c2ncnn3cc(N4CCN(C(=O)CC5CC6(C5)CN(C(=O)c5ccc(OC7CCC(=O)NC7=O)cc5)C6)CC4)cc23)ccc1CNC(=O)c1noc(C(C)(C)C)n1` (stereo not drawn) [Example 185, 5-(tert-butyl)-N-(4-(6-(4-(2-(2-(4-((2,6-dioxopiperidin-3-yl)oxy)benzoyl)-2-azaspiro[3.3]heptan-6-yl)acetyl)piperazin-1-yl)pyrrolo[2,1-f][1,2,4]triazin-4-yl)-2-methylbenzyl)-1,2,4-oxadiazole-3-carboxamide]: the 50% degradation concentration (DC50) was less than 100 nM.

`CC(C)(C)c1nc(C(=O)NCc2ccc(-c3ncnn4cc(-c5ccc(CN6CCC(c7ccc(NC8CCC(=O)NC8=O)nc7)CC6)cc5)cc34)cc2F)no1` (stereo not drawn) [Example 32, 5-tert-butyl-N-[[4-[6-[4-[[4-[6-[(2,6-dioxo-3-piperidyl)amino]-3-pyridyl]-1-piperidyl]methyl]phenyl]pyrrolo[2,1-f][1,2,4]triazin-4-yl]-2-fluoro-phenyl]methyl]-1,2,4-oxadiazole-3-carboxamide] registered a 50% degradation concentration (DC50) of less than 100 nM.

`Cc1cc(-c2ncnn3cc(OC[C@@H](F)CN4CCN(c5ccc(NC6CCC(=O)NC6=O)cn5)CC4)cc23)ccc1CNC(=O)c1noc(C(C)(C)C)n1` (stereo partly drawn) [Example 296, 5-(tert-butyl)-N-(4-(6-((2S)-3-(4-(5-((2,6-dioxopiperidin-3-yl)amino)pyridin-2-yl)piperazin-1-yl)-2-fluoropropoxy)pyrrolo[2,1-f][1,2,4]triazin-4-yl)-2-methylbenzyl)-1,2,4-oxadiazole-3-carboxamide] came in with a half-maximal degradation concentration (DC50) of less than 100 nM.

`Cc1cc(-c2ccnc3cc(-c4ccc(CN5CCC(c6ccc(NC7CCC(=O)NC7=O)cc6)CC5)cc4)nn23)ccc1CNC(=O)c1noc(C(C)(C)C)n1` (stereo not drawn) [Example 162, 5-tert-butyl-N-[[4-[2-[4-[[4-[4-[(2,6-dioxo-3-piperidyl)amino]phenyl]-1-piperidyl]methyl]phenyl]pyrazolo[1,5-a]pyrimidin-7-yl]-2-methyl-phenyl]methyl]-1,2,4-oxadiazole-3-carboxamide]: the DC50 was less than 100 nM.

Turning to `Cc1cc(-c2ncnn3cc(CCN4CC[C@@H](c5ccc6c(N7CCC(=O)NC7=O)nn(C)c6c5)C4)cc23)ccc1CNC(=O)c1noc(C(C)(C)C)n1` (single isomer, unassigned) [Example 266], the 50% degradation concentration (DC50) is less than 100 nM.

Compound `Cc1cc(-c2ncnn3cc(-c4ccc(CN5CCCC(c6ccc(C7CCC(=O)NC7=O)cc6)C5)cc4)cc23)ccc1CNC(=O)c1noc(C(C)(C)C)n1` (stereo not drawn) [Example 8, 5-tert-butyl-N-[[4-[6-[4-[[3-[4-(2,6-dioxo-3-piperidyl)phenyl]-1-piperidyl]methyl]phenyl]pyrrolo[2,1-f][1,2,4]triazin-4-yl]-2-methyl-phenyl]methyl]-1,2,4-oxadiazole-3-carboxamide] displayed a DC50 of 100 to 500 nM.

For `Cc1cc(-c2ncnn3cc(-c4ccc(CN5CCC(c6ccc(C7CCC(=O)NC7=O)cc6F)CC5)cc4)cc23)ccc1CNC(=O)c1noc(C(C)(C)C)n1` (stereo not drawn) [Example 9, 5-tert-butyl-N-[[4-[6-[4-[[4-[4-(2,6-dioxo-3-piperidyl)-2-fluoro-phenyl]-1-piperidyl]methyl]phenyl]pyrrolo[2,1-f][1,2,4]triazin-4-yl]-2-methyl-phenyl]methyl]-1,2,4-oxadiazole-3-carboxamide], the half-maximal degradation concentration (DC50) is less than 100 nM.

The compound `Cc1cc(-c2ncnn3cc(CN4CCN(CCCc5ccc(NC6CCC(=O)NC6=O)cc5)CC4)cc23)ccc1CNC(=O)c1noc(C(C)(C)C)n1` (stereo not drawn) [Example 126, 5-tert-butyl-N-[[4-[6-[[4-[3-[4-[(2,6-dioxo-3-piperidyl)amino]phenyl]propyl]piperazin-1-yl]methyl]pyrrolo[2,1-f][1,2,4]triazin-4-yl]-2-methyl-phenyl]methyl]-1,2,4-oxadiazole-3-carboxamide] showed a 50% degradation concentration (DC50) of 100 to 500 nM.

With `Cc1cc(-c2ccnn3cc(CCCCN4CCC(c5ccc(NC6CCC(=O)NC6=O)cc5)CC4)cc23)ccc1CNC(=O)c1noc(C(C)(C)C)n1` (stereo not drawn) [Example 156, 5-tert-butyl-N-[[4-[6-[4-[4-[4-[(2,6-dioxo-3-piperidyl)amino]phenyl]-1-piperidyl]butyl]pyrrolo[1,2-b]pyridazin-4-yl]-2-methyl-phenyl]methyl]-1,2,4-oxadiazole-3-carboxamide], the DC50 was less than 100 nM.

Consider `Cc1cc(-c2ncnn3cc(-c4ccc(CCCCc5ccc(NC6CCC(=O)NC6=O)cc5)cc4)cc23)ccc1CNC(=O)c1noc(C(C)(C)C)n1` (stereo not drawn) [Example 149, 5-tert-butyl-N-[[4-[6-[4-[4-[4-[(2,6-dioxo-3-piperidyl)amino]phenyl]butyl]phenyl]pyrrolo[2,1-f][1,2,4]triazin-4-yl]-2-methyl-phenyl]methyl]-1,2,4-oxadiazole-3-carboxamide], for which the 50% degradation concentration (DC50) lay in the range of 100 to 500 nM.

`CC(C)(C)c1nc(C(=O)NCc2ccc(-c3ncnn4cc(-c5ccc(CN6CCC(c7ccc(C8CCC(=O)NC8=O)cc7)CC6)cc5)cc34)cc2Cl)no1` (stereo not drawn) [Example 46, 5-tert-butyl-N-[[2-chloro-4-[6-[4-[[4-[4-(2,6-dioxo-3-piperidyl)phenyl]-1-piperidyl]methyl]phenyl]pyrrolo[2,1-f][1,2,4]triazin-4-yl]phenyl]methyl]-1,2,4-oxadiazole-3-carboxamide]: the DC50 is less than 100 nM.

For the compound `Cc1cc(-c2ncnn3cc(CCC[C@H](F)CN4CCC(c5ccc(C6CCC(=O)NC6=O)cc5)CC4)cc23)ccc1CNC(=O)c1noc(C(C)(C)C)n1` (stereo partly drawn) [Example 171, 5-tert-butyl-N-[[4-[6-[(4S)-5-[4-[4-(2,6-dioxo-3-piperidyl)phenyl]-1-piperidyl]-4-fluoro-pentyl]pyrrolo[2,1-f][1,2,4]triazin-4-yl]-2-methyl-phenyl]methyl]-1,2,4-oxadiazole-3-carboxamide], the DC50 was less than 100 nM.

On to `Cc1cc(-c2ncnn3cc(CCCCN4CCC(c5ccc6c(N7CCC(=O)NC7=O)nn(C)c6c5)CC4)cc23)ccc1CNC(=O)c1noc(C2(C(F)(F)F)CC2)n1` [Example 282, N-(4-(6-(4-(4-(3-(2,4-dioxotetrahydropyrimidin-1(2H)-yl)-1-methyl-1H-indazol-6-yl)piperidin-1-yl)butyl)pyrrolo[2,1-f][1,2,4]triazin-4-yl)-2-methylbenzyl)-5-(1-(trifluoromethyl)cyclopropyl)-1,2,4-oxadiazole-3-carboxamide], for which the DC50 was less than 100 nM.

On to `Cn1nc(N2CCC(=O)NC2=O)c2ccc(C3CCN(Cc4ccc(-c5cc6c(-c7ccc(CNC(=O)c8noc(C(C)(C)C)n8)c(F)c7)ncnn6c5)nc4)CC3)cc21` [Example 243, 5-(tert-butyl)-N-(4-(6-(5-((4-(3-(2,4-dioxotetrahydropyrimidin-1(2H)-yl)-1-methyl-1H-indazol-6-yl)piperidin-1-yl)methyl)pyridin-2-yl)pyrrolo[2,1-f] [1,2,4]triazin-4-yl)-2-fluorobenzyl)-1,2,4-oxadiazole-3-carboxamide], for which the 50% degradation concentration (DC50) was less than 100 nM.

As to `CC(C)(C)c1nc(C(=O)NCc2ccc(-c3ncnn4cc(CCCCN5CCC(c6ccc(NC7CCC(=O)NC7=O)nc6)CC5)cc34)cc2F)no1` (stereo not drawn) [Example 138, 5-tert-butyl-N-[[4-[6-[4-[4-[6-[(2,6-dioxo-3-piperidyl)amino]-3-pyridyl]-1-piperidyl]butyl]pyrrolo[2,1-f][1,2,4]triazin-4-yl]-2-fluoro-phenyl]methyl]-1,2,4-oxadiazole-3-carboxamide], the DC50 was less than 100 nM.

For `Cc1cc(-c2ncnn3cc(-c4ccc(CN(C)CCCc5ccc(NC6CCC(=O)NC6=O)cc5)cc4)cc23)ccc1CNC(=O)c1noc(C(C)(C)C)n1` (stereo not drawn) [Example 11, 5-tert-butyl-N-[[4-[6-[4-[[3-[4-[(2,6-dioxo-3-piperidyl)amino]phenyl]propyl-methyl-amino]methyl]phenyl]pyrrolo[2,1-f][1,2,4]triazin-4-yl]-2-methyl-phenyl]methyl]-1,2,4-oxadiazole-3-carboxamide], the DC50 was less than 100 nM.

In turn, `Cn1nc(N2CCC(=O)NC2=O)c2ccc(C3CCN(CCc4cc5c(-c6ccc(CNC(=O)c7noc(C(C)(C)C)n7)c(F)c6)ncnn5c4)CC3)cc21` [Example 124] showed a half-maximal degradation concentration (DC50) of less than 100 nM.

In turn, `Cc1cc(-c2ncnn3cc(CCN4CCC(c5ccc6c(N7CCC(=O)NC7=O)nn(C)c6c5)CC4)cc23)ccc1CNC(=O)c1noc(C2(C)CCC2)n1` [Example 257, N-(4-(6-(2-(4-(3-(2,4-dioxotetrahydropyrimidin-1(2H)-yl)-1-methyl-1H-indazol-6-yl)piperidin-1-yl)ethyl)pyrrolo[2,1-f][1,2,4]triazin-4-yl)-2-methylbenzyl)-5-(1-methylcyclobutyl)-1,2,4-oxadiazole-3-carboxamide] came in with a 50% degradation concentration (DC50) of less than 100 nM.

For `CC(C)(C)c1nc(C(=O)NCc2ccc(-c3ncnn4cc(CCCCN5CCC(c6ccc(C7(C)CCC(=O)NC7=O)cc6)CC5)cc34)cc2F)no1` (single isomer, unassigned) [Example 141, 5-tert-butyl-N-[[2-fluoro-4-[6-[4-[4-[4-(3-methyl-2,6-dioxo-3-piperidyl)phenyl]-1-piperidyl]butyl]pyrrolo[2,1-f][1,2,4]triazin-4-yl]phenyl]methyl]-1,2,4-oxadiazole-3-carboxamide], the half-maximal degradation concentration (DC50) is less than 100 nM.

Regarding `CC(C)(C)c1nc(C(=O)NCc2ccc(-c3ncnn4cc(CCCCN5CCC(n6ccc(NC7CCC(=O)NC7=O)n6)CC5)cc34)cc2F)no1` (stereo not drawn) [Example 137, 5-tert-butyl-N-[[4-[6-[4-[4-[3-[(2,6-dioxo-3-piperidyl)amino]pyrazol-1-yl]-1-piperidyl]butyl]pyrrolo[2,1-f][1,2,4]triazin-4-yl]-2-fluoro-phenyl]methyl]-1,2,4-oxadiazole-3-carboxamide], the 50% degradation concentration (DC50) is less than 100 nM.
